Series [1] concerns Mus musculus. The series can be described thus: Anticonvulsant activity in Swiss albino mouse assessed as protection against picrotoxin-induced seizure at 0.5 mmol/kg, ip administered 30 mins before challenge. Format: functional, organism-based.
The test system of series [2] is Mus musculus. Kind of series: Anticonvulsant activity in Swiss albino mouse assessed as protection against maximal electroshock-induced seizure at 0.5 mmol/kg, ip administered 30 mins before challenge. The format is functional. (Protection in the maximal electroshock model is a classic sign of anticonvulsant action.)
Series [3] relates to Mus musculus. The series can be described thus: Anticonvulsant activity in Swiss albino mouse assessed as protection against strychnine-induced seizure at 0.5 mmol/kg, ip administered 30 mins before challenge. Format: functional, organism-based.
The subject of series [4] is Mus musculus. Kind of series: Anticonvulsant activity in Swiss albino mouse assessed as protection against PTZ-induced seizure at 0.5 mmol/kg, ip administered 30 mins before challenge. The format is functional.
The nature of series [5]: Neurotoxicity in ip dosed Swiss albino mouse assessed as mortality. Format: toxicity, organism-based. Conditions: in vivo.
The species entered for series [6] is Mus musculus. The series can be described thus: Protective index, ratio of TD50 for neurotoxicity to ED50 for anticonvulsant activity in Swiss albino mouse. The format is functional.
Series [7] can be described thus: Therapeutic index, ratio of LD50 for mortality to ED50 for anticonvulsant activity in Swiss albino mouse. The format is organism-based. Conditions: in vivo, read-out: TI.
The subject of series [8] is Mus musculus. Kind of series: Anticonvulsant activity in ip dosed Swiss albino mouse assessed as protection against PTZ-induced seizure compound administered 30 mins before challenge measured after 60 mins. Format: functional.
Series [9] in a line: Neurotoxicity in ip dosed Swiss albino mouse measured after 30 mins by chimney test. Format: toxicity, organism-based. Conditions: in vivo.
Series [10] concerns Mus musculus. Kind of series: Anticonvulsant activity in Swiss albino mouse assessed as protection against PTZ-induced clonic seizure at 200 mg/kg, ip administered 30 mins before challenge. The format is functional. Conditions: route intraperitoneal.
Series [11] has as its system Mus musculus. Kind of series: Anticonvulsant activity in Swiss albino mouse assessed as protection against maximal electroshock-induced seizure at 200 mg/kg, ip administered 30 mins before challenge. Format: functional. The following applies: route intraperitoneal.
In series [12] the test system is Mus musculus. Kind of series: Anticonvulsant activity in Swiss albino mouse assessed as protection against PTZ-induced clonic seizure at 300 mg/kg, ip administered 30 mins before challenge. Format: functional. Conditions: route intraperitoneal.
For series [13], the system named is Mus musculus. The series can be described thus: Anticonvulsant activity in Swiss albino mouse assessed as protection against maximal electroshock-induced seizure at 300 mg/kg, ip administered 30 mins before challenge. Format: functional. The following applies: route intraperitoneal.

The source made the active and inactive calls. The rule behind the calls is not given here.

By inhibition in vivo is commonly meant the share of the control response that was lost under treatment. Regarding `Cc1ccccc1-n1c(C)nc2c(OCC(=O)N/N=C\c3ccccc3)cccc2c1=O`, the inhibition result in the series on Mus musculus [1] and with Mus musculus [3] was “inactive” in each case. Moreover, the inhibition in vivo at 500 µmol/kg in the series on Mus musculus [2] came to 0%; in the series with Mus musculus [4] it was 50%.
For `Cc1ccccc1-n1c(C)nc2c(OCC(=O)NNC(N)=O)cccc2c1=O`, the inhibition entry in the series on Mus musculus [1] and in the series with Mus musculus [3] was “inactive” each time. Further, the inhibition in vivo at 500 µmol/kg in the series on Mus musculus [2] worked out at 0%; in the series on Mus musculus [4], 50%.
`Cc1ccccc1-n1c(C)nc2c(OCC(=O)NNC(=O)NN)cccc2c1=O`: the inhibition result with Mus musculus [1] and with Mus musculus [3] was “inactive” in each case. Moreover, the inhibition in vivo at 500 µmol/kg in the series with Mus musculus [2] worked out at 0%; in the series on Mus musculus [4], 50%.
In general, LD50 refers to the dose expected to kill half of the subjects tested. For orientation: ED50 means the midpoint of the dose-response relation. As a reminder, the TD50 is the 50% point of the dose-response relation for the toxic effect studied. Low values mean harm at a small dose, high ones harm only at a large dose. With `CSC(=S)NNC(=O)COc1cccc2c(=O)n(-c3ccccc3C)c(C)nc12`, the inhibition result with Mus musculus [1] and with Mus musculus [3] was “inactive” in each case. The LD50 in series [5] was found to be 501 mg/kg. Moreover, the inhibition in vivo at 500 µmol/kg with Mus musculus [2] and in the series with Mus musculus [4] was 100% throughout. In the series listed under Mus musculus [6], the PI amounted to 1.91. For the same molecule, the therapeutic index in [7] turned out to be 3.34. Further, the 50% effective dose (ED50) with Mus musculus [8] was 150 mg/kg. The TD50 at 0.5 h in [9] turned out to be 287 mg/kg.
Turning to `COc1ccccc1/C=N\NC(=O)COc1cccc2c(=O)n(-c3ccccc3C)c(C)nc12`, the inhibition result with Mus musculus [1] and in the series with Mus musculus [3] was “inactive” in each case. Further, the inhibition in vivo at 500 µmol/kg in the series with Mus musculus [2] worked out at 0%; in the series on Mus musculus [4], 33%.
For the molecule `Cc1ccccc1-n1c(C)nc2ccccc2c1=O` [METHAQUALONE], the LD50 in [5] is 500 mg/kg. In the series listed under Mus musculus [6], the PI is reported as 2. Besides, the therapeutic index in series [7] was found to be 2.5. Moreover, the inhibition in vivo at 200 mg/kg in the series on Mus musculus [10] and with Mus musculus [11] was 100% each time. Moreover, the ED50 in the series on Mus musculus [8] came out at 200 mg/kg. The molecule also yielded a TD50 at 0.5 h in series [9] of 400 mg/kg.
As for `Cc1ccccc1-n1c(C)nc2c(OCC(=O)NNC(=S)NN)cccc2c1=O`, the inhibition entry in the series with Mus musculus [1] and in the series with Mus musculus [3] was “inactive” throughout. The values for the inhibition in vivo at 500 µmol/kg with Mus musculus [2] and in the series on Mus musculus [4] were 33% and 66%, respectively.
For `CCCC(CCC)C(=O)[O-].[Na+]` [VALPROATE SODIUM], the LD50 in series [5] was 500 mg/kg. The ED50 with Mus musculus [8] was 300 mg/kg. Further, the TD50 at 0.5 h in [9] was 450 mg/kg. Moreover, the inhibition in vivo at 300 mg/kg in the series with Mus musculus [12] and in the series on Mus musculus [13] was 100% throughout.
As to `Cc1ccccc1-n1c(C)nc2c(OCC(=O)NCCO)cccc2c1=O`, the inhibition result in the series on Mus musculus [1] and with Mus musculus [3] was “inactive” throughout. Moreover, the inhibition in vivo at 500 µmol/kg turned out to be 0% with Mus musculus [2] and 50% in the series with Mus musculus [4].
Take `Cc1ccccc1-n1c(C)nc2c(OCC(=O)N/N=C\c3ccccc3F)cccc2c1=O`: the inhibition result in the series on Mus musculus [1] and in the series with Mus musculus [3] was “inactive” throughout. Moreover, the results for the inhibition in vivo at 500 µmol/kg in the series on Mus musculus [2] and with Mus musculus [4] were 50% and 66%, respectively.
For the molecule `Cc1ccccc1-n1c(C)nc2c(OCC(=O)NN)cccc2c1=O`, the inhibition entry in the series on Mus musculus [1] and in the series on Mus musculus [3] was “inactive” in each case. Further, in series [5], the LD50 was 1000 mg/kg. The inhibition in vivo at 500 µmol/kg was found to be 50% in the series with Mus musculus [2] and 100% with Mus musculus [4]. The PI in the series filed under Mus musculus [6] was found to be 2.72. Further, the therapeutic index in [7] was determined as 10.2. Besides, the ED50 in the series with Mus musculus [8] was 98 mg/kg. The molecule further showed a TD50 at 0.5 h in [9] of 267 mg/kg.
Turning to `CCOC(=O)NNC(=O)COc1cccc2c(=O)n(-c3ccccc3C)c(C)nc12`, the inhibition result with Mus musculus [1] and with Mus musculus [3] was “inactive” in each case. The median lethal dose (LD50) in series [5] stood at 418 mg/kg. The inhibition in vivo at 500 µmol/kg with Mus musculus [2] and with Mus musculus [4] was 100% in each case. In addition, in the series filed under Mus musculus [6], the PI turned out to be 2.61. Further, in [7], the therapeutic index is 1.53. In addition, the ED50 in the series with Mus musculus [8] amounted to 160 mg/kg. The same molecule registered a TD50 at 0.5 h in series [9] of 246 mg/kg.

These data come from ChEMBL document CHEMBL1932921, “Synthesis and anticonvulsant evaluation of some new 2,3,8-trisubstituted-4(3H)-quinazoline derivatives” (Bioorg Med Chem Lett, 2012).
